Drawing on PubChem BioAssay (NCI), this text covers GI50 and TGI for seven compounds.

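1) Cells in 96-well plates. 2) Compound, 48 h, 5 concentrations. 3) Linear interpolation between surrounding doses. 4) Unreached endpoint = highest concentration. Here, GI50 denotes the concentration required for 50% inhibition of growth. The concentration for full growth arrest is given as TGI.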 Bounds are passed on as bounds.

Test systems include SK-MEL-2 melanoma; SK-OV-3 ovarian; A498 renal; DU-145 prostate; MOLT-4 leukemia; OVCAR-4 ovarian; NCI-H23 lung; MDA-MB-435; UO-31 renal; SK-MEL-5 melanoma.
Test in all cases: inhibition of tumour cell growth, NCI panel, 48 h

In the case of `N#CC1=C(N)Oc2c(sc3c(Br)cccc23)C1c1ccc(Br)cc1` (centres undefined), the GI50 is 0.434 µM in the assay with SK-MEL-2 melanoma; 0.316 µM in the assay with SK-OV-3 ovarian; 0.633 µM in the assay on A498 renal; 0.571 µM with DU-145 prostate; 0.546 µM in the assay on MOLT-4 leukemia; 1.46 µM in the assay on OVCAR-4 ovarian. Further, the GI50 in the assay on NCI-H23 lung is 1.58 µM; in the assay with MDA-MB-435, 0.109 µM; in the assay with UO-31 renal, 1.95 µM; with SK-MEL-5 melanoma it was 2.21 µM. For the same compound, the TGI was found to be 4 µM in the assay with SK-MEL-2 melanoma; 3.38 µM in the assay with SK-OV-3 ovarian; 9.56 µM in the assay with A498 renal; 2.82 µM in the assay with DU-145 prostate; 8.11 µM with MOLT-4 leukemia; 15.5 µM with OVCAR-4 ovarian. Besides, the TGI with NCI-H23 lung stood at 13.4 µM; with MDA-MB-435 it was 0.46 µM; in the assay on UO-31 renal, 11.8 µM; in the assay on SK-MEL-5 melanoma, 14.6 µM.

Turning to `COc1cc(Cl)cc(-c2nn(-c3cccc(NC(=O)Nc4cc(C(F)(F)F)cc(C(F)(F)F)c4)c3)cc2-c2ccncc2)c1`, the GI50 with SK-MEL-2 melanoma was 0.454 µM; with SK-OV-3 ovarian, 1.22 µM; with A498 renal it was 0.629 µM; with DU-145 prostate, 0.53 µM; in the assay with MOLT-4 leukemia, 0.33 µM; in the assay on OVCAR-4 ovarian it was 0.581 µM. For the same compound, the GI50 in the assay on NCI-H23 lung was 0.332 µM; in the assay with MDA-MB-435 it was 0.684 µM; with UO-31 renal it was 0.28 µM; in the assay with SK-MEL-5 melanoma, 1.09 µM. Moreover, the TGI stood at 1.91 µM in the assay with SK-MEL-2 melanoma; 6.68 µM with SK-OV-3 ovarian; 4.81 µM with A498 renal; 12.4 µM with DU-145 prostate; 1.92 µM with MOLT-4 leukemia; 17.5 µM in the assay with OVCAR-4 ovarian. The TGI in the assay on NCI-H23 lung was determined as 2.01 µM; in the assay on MDA-MB-435 it was 2.62 µM; in the assay on UO-31 renal, 1.92 µM; in the assay on SK-MEL-5 melanoma, 2.33 µM.

Consider `Cc1cc(NCc2cc(Nc3ccnc4cc(Cl)ccc34)ccc2F)nc(N2CCN(C)CC2)n1`, for which the GI50 in the assay on SK-MEL-2 melanoma was 2.03 µM; with SK-OV-3 ovarian, 3.31 µM; in the assay on A498 renal it was 1.54 µM; in the assay on DU-145 prostate, 2.63 µM; in the assay with MOLT-4 leukemia, 1.39 µM; with OVCAR-4 ovarian, 1.56 µM. The GI50 was 2.1 µM in the assay with NCI-H23 lung, 1.52 µM in the assay with MDA-MB-435, 1.38 µM in the assay on UO-31 renal and 1.69 µM in the assay on SK-MEL-5 melanoma. The TGI in the assay on SK-MEL-2 melanoma is 3.93 µM; in the assay on SK-OV-3 ovarian, 9.88 µM; with A498 renal, 3.22 µM; in the assay with DU-145 prostate, 11.4 µM; in the assay on MOLT-4 leukemia, 8.17 µM; in the assay with OVCAR-4 ovarian, 8.57 µM. Also, the TGI in the assay with NCI-H23 lung turned out to be 6.54 µM; in the assay on MDA-MB-435 it was 2.96 µM; in the assay with UO-31 renal it was 3.11 µM; in the assay on SK-MEL-5 melanoma, 3.07 µM.

On to `Cc1cc(=O)[nH]c2cc3c(c4c(n3Cc3ccc(Cl)cc3Cl)CC(C)(C)CC4=O)c(O)c12`, for which the GI50 with SK-MEL-2 melanoma was more than 100 µM; in the assay on SK-OV-3 ovarian it was more than 100 µM; in the assay on A498 renal it was more than 100 µM; in the assay on DU-145 prostate, 46.2 µM; in the assay with MOLT-4 leukemia, more than 100 µM; with OVCAR-4 ovarian, more than 100 µM. The GI50 is 39.6 µM in the assay on NCI-H23 lung, 57.4 µM in the assay with MDA-MB-435, more than 100 µM in the assay with UO-31 renal and 16.3 µM with SK-MEL-5 melanoma. Also, the TGI in the assay with SK-MEL-2 melanoma, in the assay with SK-OV-3 ovarian, with A498 renal, in the assay on DU-145 prostate, in the assay with MOLT-4 leukemia and in the assay on OVCAR-4 ovarian was more than 100 µM each time. In addition, the TGI with NCI-H23 lung was more than 100 µM; with MDA-MB-435, more than 100 µM; with UO-31 renal, more than 100 µM; in the assay on SK-MEL-5 melanoma, 31.8 µM.

For `O=c1[nH]c(=O)c2cc(C3CC(O)C(CO)O3)ccc2[nH]1` (centres undefined), the GI50 in the assay on SK-MEL-2 melanoma is more than 100 µM; in the assay with SK-OV-3 ovarian, more than 100 µM; in the assay on A498 renal, more than 100 µM; with DU-145 prostate it was more than 100 µM; with MOLT-4 leukemia, more than 100 µM; with OVCAR-4 ovarian, 43.5 µM. For the same compound, the GI50 in the assay with NCI-H23 lung, in the assay with MDA-MB-435, with UO-31 renal and with SK-MEL-5 melanoma was more than 100 µM in each case. The TGI with SK-MEL-2 melanoma, with SK-OV-3 ovarian, in the assay on A498 renal, with DU-145 prostate, in the assay on MOLT-4 leukemia and with OVCAR-4 ovarian was more than 100 µM throughout. The TGI in the assay on NCI-H23 lung, in the assay with MDA-MB-435, in the assay on UO-31 renal and with SK-MEL-5 melanoma was more than 100 µM each time.

Take `O=C1C=CC[C@H](/C=C/c2ccccc2)O1`: the GI50 is 6.57 µM in the assay with SK-MEL-2 melanoma; 5.54 µM in the assay on SK-OV-3 ovarian; 1.45 µM with A498 renal; 2.82 µM in the assay on DU-145 prostate; 1.39 µM in the assay on OVCAR-4 ovarian; 2.14 µM with NCI-H23 lung. The GI50 in the assay with MDA-MB-435 was 1.81 µM; with UO-31 renal, 3.89 µM; in the assay on SK-MEL-5 melanoma it was 3.39 µM. In addition, the TGI is 34.2 µM in the assay with SK-MEL-2 melanoma; 99.4 µM in the assay on SK-OV-3 ovarian; 6.91 µM in the assay on A498 renal; 9.07 µM in the assay on DU-145 prostate; more than 100 µM in the assay with MOLT-4 leukemia; 10.7 µM in the assay with OVCAR-4 ovarian. In addition, the TGI was 10.7 µM in the assay on NCI-H23 lung, 14.8 µM in the assay on MDA-MB-435, 8.99 µM with UO-31 renal and 16.6 µM in the assay on SK-MEL-5 melanoma.

With `COc1ccccc1N1CCN(CCc2c[nH]c3cc4c(cc23)OCO4)CC1`, the GI50 was 21.3 µM in the assay with SK-MEL-2 melanoma; 81.6 µM in the assay on SK-OV-3 ovarian; 16.6 µM in the assay with A498 renal; 28.9 µM with DU-145 prostate; 38.8 µM in the assay on MOLT-4 leukemia; 37.7 µM with OVCAR-4 ovarian. For the same compound, the GI50 was 23.4 µM in the assay on NCI-H23 lung, 14 µM in the assay with MDA-MB-435, 20.3 µM with UO-31 renal and 13.2 µM in the assay on SK-MEL-5 melanoma. Moreover, the TGI with SK-MEL-2 melanoma was 56.3 µM; in the assay on SK-OV-3 ovarian it was more than 100 µM; in the assay with A498 renal, 83 µM; in the assay on DU-145 prostate, more than 100 µM; in the assay with MOLT-4 leukemia, more than 100 µM; with OVCAR-4 ovarian it was more than 100 µM. In addition, the TGI is more than 100 µM with NCI-H23 lung, 52.3 µM with MDA-MB-435, more than 100 µM in the assay with UO-31 renal and 26.2 µM with SK-MEL-5 melanoma.
